Source: ChEMBL document CHEMBL1201862, “PubChem BioAssay data set” (2004)
Active and inactive are the calls of the source.

Assays:
[1] = tested on: HeLa; test: viability loss in HeLa cells – cell-based, 24 h, cherry-picked samples, cytotoxicity control, dose response (AID 504726); assay type: functional; details: Homo sapiens;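 also: potency for cytotoxicity as loss of luminescence signal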
[2] = target: T1, Alkaline phosphatase, tissue-nonspecific isozyme (Homo sapiens, UniProt P05186); test: TNAP enzyme inhibition by screening hits, dose response, selectivity assay for mouse IAP inhibitor project, biochemical, human TNAP, uHTS hits (AID 488906); assay type: functional
T1 sequence (P05186 whole entry): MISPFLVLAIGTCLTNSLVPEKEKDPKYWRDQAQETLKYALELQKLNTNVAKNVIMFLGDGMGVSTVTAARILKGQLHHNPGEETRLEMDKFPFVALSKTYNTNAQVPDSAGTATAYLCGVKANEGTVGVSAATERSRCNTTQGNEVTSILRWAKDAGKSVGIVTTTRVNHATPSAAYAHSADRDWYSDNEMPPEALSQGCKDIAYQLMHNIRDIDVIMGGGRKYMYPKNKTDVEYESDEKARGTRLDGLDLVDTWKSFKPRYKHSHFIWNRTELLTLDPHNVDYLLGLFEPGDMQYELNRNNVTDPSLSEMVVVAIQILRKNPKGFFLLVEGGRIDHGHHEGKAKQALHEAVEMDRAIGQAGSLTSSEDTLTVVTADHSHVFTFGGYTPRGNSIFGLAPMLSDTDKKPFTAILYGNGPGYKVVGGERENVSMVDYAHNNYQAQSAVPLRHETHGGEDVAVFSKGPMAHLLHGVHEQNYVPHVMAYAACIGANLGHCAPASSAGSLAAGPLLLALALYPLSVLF

[3] = target: Lysine-specific demethylase 4C (Homo sapiens, UniProt Q9H3R0); test: inhibition of JMJD2C H3K9me3 demethylation – biochemical, DELFIA europium, cherry-picked samples, dose response (AID 488835); assay type: functional
Lysine-specific demethylase 4C, sequence (Q9H3R0 whole entry): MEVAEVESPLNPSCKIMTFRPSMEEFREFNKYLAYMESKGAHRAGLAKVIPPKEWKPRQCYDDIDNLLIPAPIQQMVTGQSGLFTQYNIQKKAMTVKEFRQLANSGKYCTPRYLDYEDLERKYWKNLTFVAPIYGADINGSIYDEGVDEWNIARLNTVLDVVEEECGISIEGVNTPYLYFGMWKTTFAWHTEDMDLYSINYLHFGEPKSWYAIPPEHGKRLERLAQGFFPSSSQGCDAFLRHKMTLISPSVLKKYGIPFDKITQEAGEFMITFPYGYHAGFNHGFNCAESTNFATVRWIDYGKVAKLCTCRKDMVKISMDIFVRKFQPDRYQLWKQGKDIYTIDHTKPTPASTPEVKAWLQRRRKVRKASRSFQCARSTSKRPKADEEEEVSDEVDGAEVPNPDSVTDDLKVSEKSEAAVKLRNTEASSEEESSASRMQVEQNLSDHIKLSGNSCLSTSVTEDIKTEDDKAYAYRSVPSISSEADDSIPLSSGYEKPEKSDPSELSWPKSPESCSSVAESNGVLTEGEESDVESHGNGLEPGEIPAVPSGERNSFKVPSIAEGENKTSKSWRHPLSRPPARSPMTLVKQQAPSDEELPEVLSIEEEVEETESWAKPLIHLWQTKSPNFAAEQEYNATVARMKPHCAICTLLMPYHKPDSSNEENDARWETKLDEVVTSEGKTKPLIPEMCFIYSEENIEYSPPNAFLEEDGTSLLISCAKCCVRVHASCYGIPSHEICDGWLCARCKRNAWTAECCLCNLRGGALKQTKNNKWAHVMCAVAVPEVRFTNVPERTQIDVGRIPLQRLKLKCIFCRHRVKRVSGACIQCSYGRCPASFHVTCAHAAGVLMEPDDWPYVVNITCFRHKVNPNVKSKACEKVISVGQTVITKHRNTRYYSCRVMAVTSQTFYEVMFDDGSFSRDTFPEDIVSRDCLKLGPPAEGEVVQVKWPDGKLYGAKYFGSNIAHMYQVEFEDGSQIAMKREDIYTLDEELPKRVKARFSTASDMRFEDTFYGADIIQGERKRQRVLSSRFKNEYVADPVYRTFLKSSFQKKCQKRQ

[4] = target: Intestinal-type alkaline phosphatase (Homo sapiens, UniProt P09923); test: inhibition of human intestinal alkaline phosphatase – biochemical, dose response (AID 488876); assay type: functional
[5] = target: Fatty acid synthase (Homo sapiens, UniProt P49327); test: inhibition of human FAS-TE enzyme activity – biochemical, endpoint fluorescence intensity, uHTS hits, dose response (AID 624327); assay type: functional;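 also: fluorescence from hydrolysis of an O-methyl fluorescein acyl ester substrate by the enzyme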
Fatty acid synthase, sequence (P49327 whole entry): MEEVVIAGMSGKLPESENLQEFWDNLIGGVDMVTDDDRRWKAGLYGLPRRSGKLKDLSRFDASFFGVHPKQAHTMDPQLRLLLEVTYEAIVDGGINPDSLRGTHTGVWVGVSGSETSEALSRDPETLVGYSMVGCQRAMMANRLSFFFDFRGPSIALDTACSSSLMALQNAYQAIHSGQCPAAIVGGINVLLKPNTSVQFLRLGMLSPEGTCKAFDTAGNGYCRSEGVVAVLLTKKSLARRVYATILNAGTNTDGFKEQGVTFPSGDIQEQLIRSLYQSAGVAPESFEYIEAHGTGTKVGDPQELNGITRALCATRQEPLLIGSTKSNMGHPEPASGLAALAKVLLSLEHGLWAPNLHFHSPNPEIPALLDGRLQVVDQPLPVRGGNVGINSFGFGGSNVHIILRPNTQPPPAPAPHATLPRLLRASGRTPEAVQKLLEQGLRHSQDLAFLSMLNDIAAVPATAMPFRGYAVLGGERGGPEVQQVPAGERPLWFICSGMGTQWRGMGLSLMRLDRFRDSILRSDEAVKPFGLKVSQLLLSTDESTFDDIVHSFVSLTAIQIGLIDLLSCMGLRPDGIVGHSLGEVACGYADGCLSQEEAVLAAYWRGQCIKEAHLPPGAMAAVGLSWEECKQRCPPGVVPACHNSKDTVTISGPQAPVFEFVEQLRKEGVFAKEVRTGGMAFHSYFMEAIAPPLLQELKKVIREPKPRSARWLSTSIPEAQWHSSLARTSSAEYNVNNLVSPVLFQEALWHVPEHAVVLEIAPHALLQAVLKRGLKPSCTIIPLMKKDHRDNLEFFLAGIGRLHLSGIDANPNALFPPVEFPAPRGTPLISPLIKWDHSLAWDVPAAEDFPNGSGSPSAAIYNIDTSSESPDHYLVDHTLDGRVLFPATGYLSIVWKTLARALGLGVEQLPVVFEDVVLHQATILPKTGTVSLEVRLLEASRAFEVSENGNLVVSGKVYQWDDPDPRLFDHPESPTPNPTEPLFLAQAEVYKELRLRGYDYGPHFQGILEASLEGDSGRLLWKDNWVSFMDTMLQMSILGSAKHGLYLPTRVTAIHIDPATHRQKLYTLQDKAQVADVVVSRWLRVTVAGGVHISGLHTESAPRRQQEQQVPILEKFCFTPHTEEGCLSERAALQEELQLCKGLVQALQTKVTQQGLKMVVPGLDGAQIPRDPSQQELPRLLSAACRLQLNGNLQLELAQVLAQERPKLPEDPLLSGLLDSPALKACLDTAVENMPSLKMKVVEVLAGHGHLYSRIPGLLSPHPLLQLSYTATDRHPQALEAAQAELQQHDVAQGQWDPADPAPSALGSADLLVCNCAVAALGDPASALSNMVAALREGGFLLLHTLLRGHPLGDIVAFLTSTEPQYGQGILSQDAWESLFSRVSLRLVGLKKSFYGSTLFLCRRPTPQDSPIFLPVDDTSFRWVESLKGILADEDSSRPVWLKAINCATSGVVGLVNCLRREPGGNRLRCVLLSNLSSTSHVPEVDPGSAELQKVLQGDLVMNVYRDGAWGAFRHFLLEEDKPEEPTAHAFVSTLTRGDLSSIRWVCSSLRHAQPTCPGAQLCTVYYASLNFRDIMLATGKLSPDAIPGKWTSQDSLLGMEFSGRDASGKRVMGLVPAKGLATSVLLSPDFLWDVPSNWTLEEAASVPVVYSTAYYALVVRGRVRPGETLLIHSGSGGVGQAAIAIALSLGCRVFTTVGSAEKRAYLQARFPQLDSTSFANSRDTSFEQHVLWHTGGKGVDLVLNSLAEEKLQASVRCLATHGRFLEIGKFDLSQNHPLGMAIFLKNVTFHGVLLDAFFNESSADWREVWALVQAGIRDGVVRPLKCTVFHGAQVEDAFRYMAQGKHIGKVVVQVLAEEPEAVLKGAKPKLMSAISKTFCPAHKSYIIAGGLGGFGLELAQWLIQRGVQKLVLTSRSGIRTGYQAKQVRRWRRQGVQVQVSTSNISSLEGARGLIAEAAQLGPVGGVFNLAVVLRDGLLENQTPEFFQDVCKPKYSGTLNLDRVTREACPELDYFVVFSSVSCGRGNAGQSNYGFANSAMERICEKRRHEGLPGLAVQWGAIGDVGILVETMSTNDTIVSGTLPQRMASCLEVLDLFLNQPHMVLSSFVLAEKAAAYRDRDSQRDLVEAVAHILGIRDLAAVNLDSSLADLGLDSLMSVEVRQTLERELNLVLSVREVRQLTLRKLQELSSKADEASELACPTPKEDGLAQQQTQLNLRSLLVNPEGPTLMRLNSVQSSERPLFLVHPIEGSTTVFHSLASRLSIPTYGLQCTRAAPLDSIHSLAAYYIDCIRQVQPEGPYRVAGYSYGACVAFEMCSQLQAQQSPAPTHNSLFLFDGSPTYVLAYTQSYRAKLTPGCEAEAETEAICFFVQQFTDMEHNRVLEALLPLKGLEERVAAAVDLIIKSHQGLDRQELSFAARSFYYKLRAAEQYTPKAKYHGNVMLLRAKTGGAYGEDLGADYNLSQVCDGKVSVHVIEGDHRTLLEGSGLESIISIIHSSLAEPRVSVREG

[6] = viability loss in HeLa cells – cytotoxicity control for MgcRacGAP inhibitor project, dose response (AID 624300); assay type: functional
[7] = target: Matrix metalloproteinase-14 (Homo sapiens, UniProt P50281); test: Dose Response confirmation of uHTS hits for a small molecule inhibitors of MT1-MMP activation in a fluorescence assay set 2.; assay type: functional
[8] = target: T2, Caspase-6 (Homo sapiens, UniProt P55212); test: inhibition of CASP6 peptide cleavage – biochemical, VEID-R110 fluorescence, cherry-pick, dose response (AID 720632)
T2 sequence (P55212 whole entry): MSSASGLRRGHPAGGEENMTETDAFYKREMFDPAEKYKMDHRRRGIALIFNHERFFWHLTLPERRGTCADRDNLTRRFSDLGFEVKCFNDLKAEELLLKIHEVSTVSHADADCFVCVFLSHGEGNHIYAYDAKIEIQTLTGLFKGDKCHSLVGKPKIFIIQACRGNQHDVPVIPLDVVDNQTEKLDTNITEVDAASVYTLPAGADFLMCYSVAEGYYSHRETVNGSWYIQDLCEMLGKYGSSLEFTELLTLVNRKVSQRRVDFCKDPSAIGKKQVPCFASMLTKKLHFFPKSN

[9] = target: 1-phosphatidylinositol 4,5-bisphosphate phosphodiesterase beta-3 (Homo sapiens, UniProt Q01970); test: Fluorescence-based biochemical high throughput dose response assay to identify inhibitors of phospholipase C isozymes (PLC-B3).
1-phosphatidylinositol 4,5-bisphosphate phosphodiesterase beta-3, sequence (Q01970 whole entry): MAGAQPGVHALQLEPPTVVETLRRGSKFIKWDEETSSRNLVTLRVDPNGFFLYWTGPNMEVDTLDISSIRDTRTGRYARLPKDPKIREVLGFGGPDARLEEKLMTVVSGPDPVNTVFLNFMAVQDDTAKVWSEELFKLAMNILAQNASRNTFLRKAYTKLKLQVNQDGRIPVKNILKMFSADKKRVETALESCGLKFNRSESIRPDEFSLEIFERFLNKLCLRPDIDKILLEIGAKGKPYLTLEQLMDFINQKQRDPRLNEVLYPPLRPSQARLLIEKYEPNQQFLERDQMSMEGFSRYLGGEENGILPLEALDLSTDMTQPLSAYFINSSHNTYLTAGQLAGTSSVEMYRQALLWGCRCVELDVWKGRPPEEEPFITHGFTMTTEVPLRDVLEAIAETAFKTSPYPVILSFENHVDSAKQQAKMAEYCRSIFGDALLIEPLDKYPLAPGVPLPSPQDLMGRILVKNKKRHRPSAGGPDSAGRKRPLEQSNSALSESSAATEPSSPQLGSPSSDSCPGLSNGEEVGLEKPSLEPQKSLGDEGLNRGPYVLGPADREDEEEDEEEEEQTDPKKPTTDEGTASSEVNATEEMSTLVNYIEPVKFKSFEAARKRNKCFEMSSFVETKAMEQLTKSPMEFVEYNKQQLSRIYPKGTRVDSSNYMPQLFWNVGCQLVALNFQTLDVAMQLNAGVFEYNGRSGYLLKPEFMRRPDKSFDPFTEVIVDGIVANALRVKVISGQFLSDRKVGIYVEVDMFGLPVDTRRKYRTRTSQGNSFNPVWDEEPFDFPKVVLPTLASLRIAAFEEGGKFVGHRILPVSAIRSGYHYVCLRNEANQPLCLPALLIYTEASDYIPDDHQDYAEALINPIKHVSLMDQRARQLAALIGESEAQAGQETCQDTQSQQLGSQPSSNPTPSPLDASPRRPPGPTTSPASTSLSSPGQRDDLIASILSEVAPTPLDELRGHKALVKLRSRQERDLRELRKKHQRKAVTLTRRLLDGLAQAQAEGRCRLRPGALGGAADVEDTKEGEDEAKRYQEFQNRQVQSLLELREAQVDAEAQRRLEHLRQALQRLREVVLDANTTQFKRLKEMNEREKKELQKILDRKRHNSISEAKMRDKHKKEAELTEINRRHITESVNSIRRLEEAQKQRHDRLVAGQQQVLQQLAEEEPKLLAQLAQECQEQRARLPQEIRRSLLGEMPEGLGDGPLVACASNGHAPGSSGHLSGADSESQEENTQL

[10] = tested on: Streptococcus; test: GAS UMAA2166 growth inhibition – luminescence, BacTiterGlo, counter-screen for streptokinase expression inhibitor project, dose response (AID 1915); assay type: functional, organism-based;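 also: potency for reduction of bacterial viability or growth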
[11] = tested on: Jurkat; test: blockers of NF-kB activation in T cells – Jurkat, luciferase reporter, luminescence, B- and T-cell, dose response (AID 489004); assay type: functional, cell-based; details: Homo sapiens;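 also: NF-kB luciferase reporter Jurkat cells stimulated with PMA plus ionomycin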
[12] = target: T3, Ubiquitin-conjugating enzyme E2 N (Homo sapiens, UniProt P61088); assay type: functional
T3 sequence (P61088 whole entry): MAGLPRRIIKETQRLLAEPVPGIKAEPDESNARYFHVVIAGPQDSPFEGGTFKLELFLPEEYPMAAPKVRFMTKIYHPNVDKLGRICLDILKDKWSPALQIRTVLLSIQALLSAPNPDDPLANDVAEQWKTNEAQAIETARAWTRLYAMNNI

[13] = target: T3, Ubiquitin-conjugating enzyme E2 N; assay type: functional; remark: listed apart in the source
[14] = target: T4, Replicative DNA helicase DnaB (Mycobacterium tuberculosis, UniProt P9WMR3); test: DnaB intein splicing inhibitors, dose response, biochemical, cell-free fluorescence (AID 449749); assay type: functional
T4 sequence (P9WMR3 whole entry): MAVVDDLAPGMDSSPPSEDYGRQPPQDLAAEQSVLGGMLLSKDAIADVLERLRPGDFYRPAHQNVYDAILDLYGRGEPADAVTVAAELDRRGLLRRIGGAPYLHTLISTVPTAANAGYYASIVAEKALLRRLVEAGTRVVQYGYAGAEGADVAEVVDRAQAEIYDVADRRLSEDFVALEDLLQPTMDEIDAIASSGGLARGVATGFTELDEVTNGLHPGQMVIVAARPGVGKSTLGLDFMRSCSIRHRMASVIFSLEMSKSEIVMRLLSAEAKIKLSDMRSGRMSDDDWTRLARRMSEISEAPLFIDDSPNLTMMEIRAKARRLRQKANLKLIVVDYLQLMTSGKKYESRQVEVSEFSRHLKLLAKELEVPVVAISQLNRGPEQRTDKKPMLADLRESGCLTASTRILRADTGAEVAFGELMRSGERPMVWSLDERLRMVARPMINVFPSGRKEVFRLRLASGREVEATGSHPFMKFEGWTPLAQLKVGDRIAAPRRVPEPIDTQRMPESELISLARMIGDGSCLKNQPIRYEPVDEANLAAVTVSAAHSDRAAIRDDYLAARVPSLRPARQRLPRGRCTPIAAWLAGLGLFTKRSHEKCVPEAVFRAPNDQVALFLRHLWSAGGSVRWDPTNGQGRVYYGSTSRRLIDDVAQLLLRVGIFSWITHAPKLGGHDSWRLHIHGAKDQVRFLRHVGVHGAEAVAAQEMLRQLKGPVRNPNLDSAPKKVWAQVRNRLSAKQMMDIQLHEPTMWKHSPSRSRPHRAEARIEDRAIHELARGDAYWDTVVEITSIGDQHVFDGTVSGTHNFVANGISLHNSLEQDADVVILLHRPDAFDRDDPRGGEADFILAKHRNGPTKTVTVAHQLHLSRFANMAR

[15] = HIV-1 AD8 envelope cell-cell fusion blockers – cherry-pick, dose response (AID 652062); assay type: functional, cell-based;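 also: luciferase signal from cell-cell fusion driven by HIV-1 clade B AD8 Env; potency is for inhibitors of fusion seen as a drop in luminescence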

Structure (SMILES) | AC50 [1] | IC50 [2] | AC50 [3] | IC50 [4] | IC50 [5] | CC50 [6] | IC50 [7] | AC50 [8] | IC50 [9] | EC50 [10] | IC50 [11] | IC50 [12] | IC50 [13] | AC50 [14] | AC50 [15]
O=c1ccc2c(-c3ccccc3S(=O)(=O)O)c3ccc(O)c(O)c3oc-2c1O [PYROGALLOL RED] | 8.94 µM (active) | 24.1 µM (active) | 1.78 µM (active) | > 100 µM (inactive) | 16.2 µM (active) | 100 µM (active) | 19.6 µM (active) | 0.192 µM (active) | > 40.8 µM (inactive) | – | – | – | – | – | –
CCCCCCCCCCOC(=O)C[n+]1c(COc2ccccc2OC)n(C)c2ccccc21 | – | – | – | – | – | – | – | – | – | 12.7 µM (active) | 4.4 µM (active) | 15.6 µM (active) | 15.1 µM (active) | 3.92 µM (active) | 4.02 µM (active)
